From ChEMBL document CHEMBL5329195, “Identification of novel glucocerebrosidase chaperones by unexpected skeletal rearrangement reaction” (Bioorg Med Chem Lett, 2023)
pEC50, pIC50: −log10 of the molar value. Activity calls are given as the source filed them. No cut-off for these calls is given here.

What was measured:
[1] = target: T1, Lysosomal acid glucosylceramidase (Homo sapiens, UniProt P04062, N409S); test: Chaperone activity at GCase N370S GBA mutant in patient derived fibroblast cells using 4-methylumbelliferyl-beta-D-glucopyranoside as substrate incubated for 5 days by fluorescence based analysis; assay type: cell-based; conditions: for EC50: fibroblast; for pEC50: read-out: EC50
[2] = system: T2, Lysosomal acid glucosylceramidase (Homo sapiens), P04062 [N409S]; test: Chaperone activity at GCase N370S GBA mutant in patient derived fibroblast cells using 4-methylumbelliferyl-beta-D-glucopyranoside as substrate incubated for 5 days by fluorescence based analysis relative to control; assay type: cell-based; conditions: time 5.0 day
T2 sequence (whole entry): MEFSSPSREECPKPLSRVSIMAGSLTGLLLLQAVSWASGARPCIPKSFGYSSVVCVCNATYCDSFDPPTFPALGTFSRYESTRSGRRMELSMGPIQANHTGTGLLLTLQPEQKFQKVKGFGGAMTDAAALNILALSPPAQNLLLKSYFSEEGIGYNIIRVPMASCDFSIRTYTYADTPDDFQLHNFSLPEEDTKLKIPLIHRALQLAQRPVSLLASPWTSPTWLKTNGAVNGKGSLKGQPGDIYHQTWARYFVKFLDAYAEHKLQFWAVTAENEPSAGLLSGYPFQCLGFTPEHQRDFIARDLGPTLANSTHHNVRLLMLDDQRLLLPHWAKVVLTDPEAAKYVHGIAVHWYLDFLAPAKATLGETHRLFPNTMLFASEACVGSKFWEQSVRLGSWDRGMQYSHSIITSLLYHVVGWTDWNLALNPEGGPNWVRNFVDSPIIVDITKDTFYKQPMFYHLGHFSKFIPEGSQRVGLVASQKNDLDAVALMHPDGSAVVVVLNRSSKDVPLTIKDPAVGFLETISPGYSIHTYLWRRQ

[3] = system: T2, Lysosomal acid glucosylceramidase (Homo sapiens), P04062 [N409S]; test: Inhibition of GCase N370S GBA mutant in patient derived fibroblast cells using 4-methylumbelliferyl-beta-D-glucopyranoside as substrate incubated for 5 days by fluorescence based analysis relative to control; assay type: cell-based; conditions: time 5.0 day
[4] = target: T1, Lysosomal acid glucosylceramidase; test: Inhibition of GCase N370S GBA mutant in patient derived fibroblast cells using 4-methylumbelliferyl-beta-D-glucopyranoside as substrate incubated for 5 days by fluorescence based analysis; assay type: cell-based; conditions: for pIC50: read-out: IC50; for IC50: fibroblast
[5] = Stability of the compound in human liver microsomes assessed as intrinsic clearance; assay type: ADME, Microsome; conditions: read-out: CLH
[6] = Stability of the compound in mouse liver microsomes assessed as intrinsic clearance; assay type: ADME, Microsome; conditions: read-out: CLH
[7] = Solubility of the compound at pH 7.4; assay type: physicochemical; conditions: buffer
[8] = Solubility of the compound at pH 1.2; assay type: physicochemical; conditions: buffer
[9] = Stability of the compound in JPI fluid at pH 1.2; assay type: physicochemical; conditions: buffer
[10] = Stability of the compound in DMSO; assay type: physicochemical
[11] = target: Voltage-gated inwardly rectifying potassium channel KCNH2 (Homo sapiens, UniProt Q12809); test: Inhibition of human ERG; assay type: toxicity
Sequence of Voltage-gated inwardly rectifying potassium channel KCNH2 (Q12809 whole entry): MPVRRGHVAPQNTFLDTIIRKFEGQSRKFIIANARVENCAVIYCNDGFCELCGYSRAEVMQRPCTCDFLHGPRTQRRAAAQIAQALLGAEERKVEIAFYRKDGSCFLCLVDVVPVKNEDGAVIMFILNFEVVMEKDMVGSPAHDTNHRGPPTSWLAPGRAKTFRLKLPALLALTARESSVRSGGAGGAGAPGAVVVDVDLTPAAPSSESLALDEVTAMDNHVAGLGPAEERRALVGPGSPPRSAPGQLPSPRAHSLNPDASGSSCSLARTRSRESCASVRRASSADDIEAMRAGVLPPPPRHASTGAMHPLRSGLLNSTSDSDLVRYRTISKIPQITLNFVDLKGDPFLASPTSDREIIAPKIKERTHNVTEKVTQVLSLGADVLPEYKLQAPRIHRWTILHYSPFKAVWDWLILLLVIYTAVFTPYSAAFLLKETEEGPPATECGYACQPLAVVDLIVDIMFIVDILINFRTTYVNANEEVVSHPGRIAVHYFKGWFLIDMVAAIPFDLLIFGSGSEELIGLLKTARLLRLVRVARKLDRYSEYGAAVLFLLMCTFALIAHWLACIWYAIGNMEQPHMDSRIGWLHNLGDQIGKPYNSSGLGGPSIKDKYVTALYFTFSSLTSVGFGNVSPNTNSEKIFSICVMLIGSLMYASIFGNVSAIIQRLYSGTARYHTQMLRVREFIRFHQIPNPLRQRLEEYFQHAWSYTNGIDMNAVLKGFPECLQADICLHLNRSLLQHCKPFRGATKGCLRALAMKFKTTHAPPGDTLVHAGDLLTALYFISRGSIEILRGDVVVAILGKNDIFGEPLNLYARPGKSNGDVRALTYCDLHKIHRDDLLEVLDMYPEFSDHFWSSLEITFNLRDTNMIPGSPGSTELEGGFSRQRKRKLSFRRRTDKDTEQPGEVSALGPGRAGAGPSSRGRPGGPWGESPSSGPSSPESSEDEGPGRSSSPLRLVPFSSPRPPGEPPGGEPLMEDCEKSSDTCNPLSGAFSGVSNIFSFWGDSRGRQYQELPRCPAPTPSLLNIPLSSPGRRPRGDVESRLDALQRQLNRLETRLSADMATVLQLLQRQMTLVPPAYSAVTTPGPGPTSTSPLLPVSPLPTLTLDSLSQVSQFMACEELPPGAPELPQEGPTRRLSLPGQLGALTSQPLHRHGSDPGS

| Emax [2] | pEC50 [1] | SMILES | further results |
| --- | --- | --- | --- |
| inactive | – | COCc1n[nH]c2c1[C@@H](O)[C@H](n1nnc3ccccc31)[C@@H](c1ccccc1)N2 (racemic) | EC50 [1]: Not Active |
| 191% | 6.32 | CCc1n[nH]c2c1[C@@H](O)[C@H](n1nnc3ccccc31)[C@@H](c1ccccc1Cl)N2 (racemic) | – |
| 147% | 6.82 | Cc1cccc([C@H]2Nc3[nH]nc(C)c3[C@@H](O)[C@@H]2n2nnc3ccccc32)c1Cl (racemic) | – |
| inactive | – | O[C@@H]1c2c(C3CCCC3)n[nH]c2N[C@H](c2ccccc2)[C@H]1n1nnc2ccccc21 (racemic) | EC50 [1]: Not Active |
| inactive | – | Cc1n[nH]c2c1[C@H](O)[C@@H](n1nnc3ccccc31)[C@H](c1ccccc1Br)N2 | EC50 [1]: Not Active |
| 160% | 6.33 | Cc1n[nH]c2c1[C@@H](O)[C@H](n1nnc3ccccc31)[C@@H](c1ccccc1C(F)(F)F)N2 (racemic) | Emax [3]: 103%; pIC50 [4]: 5.96 |
| inactive | – | O[C@@H]1c2ccccc2N[C@H](c2ccccc2)[C@H]1n1nnc2ccccc21 (racemic) | EC50 [1]: Not Active |
| inactive | – | Cc1n[nH]c2c1[C@@H](O)[C@H](n1nnc3ccccc31)[C@@H](C1CC1)N2 (racemic) | EC50 [1]: Not Active |
| 150% | 5.72 | Cc1n[nH]c2c1[C@@H](O)[C@H](n1nnc3ccccc31)[C@@H](C1CCCC1)N2 (racemic) | – |
| 173% | – | Cc1n[nH]c2c1[C@@H](O)[C@H](n1nnc3ccccc31)[C@@H](c1ccccc1)N2 (racemic) [listing 1 of 2 here] | – |
| 137% | 5.92 | Cc1n[nH]c2c1[C@@H](O)[C@H](n1nnc3ccccc31)[C@@H](c1cccc(F)c1)N2 (racemic) | – |
| – | 5.96 | Cc1n[nH]c2c1[C@@H](O)[C@H](n1nnc3ccccc31)[C@@H](c1ccccc1)N2 [listing 1 of 2 here] | microsomal CLint [5]: 5.01 µL/min/mg; microsomal CLint [6]: 9.88 µL/min/mg; solubility [7]: > 100 µM; solubility [8]: > 100 µM; pIC50 [4]: 5.49 |
| 163% | – | Cc1n[nH]c2c1[C@@H](O)[C@H](n1nnc3ccccc31)[C@@H](c1ccccc1Cl)N2 [listing 1 of 2 here] | Emax [3]: 85% |
| – | 5.85 | Cc1n[nH]c2c1[C@@H](O)[C@H](n1nnc3ccccc31)[C@@H](c1ccccc1)N2 (racemic) [listing 2 of 2 here] | – |
| 151% | 6.24 | O[C@@H]1c2ccncc2N[C@H](c2ccccc2Cl)[C@H]1n1nnc2ccccc21 (racemic) | Emax [3]: 99%; pIC50 [4]: 5.74 |
| 137% | 6.01 | Cc1n[nH]c2c1[C@@H](O)[C@H](n1nnc3ccccc31)[C@@H](c1ccccc1F)N2 (racemic) | Emax [3]: 103%; pIC50 [4]: 5.74 |
| – | 5.25 | Cc1cc2n(n1)C(O)[C@H](n1nnc3ccccc31)[C@@H](c1ccccc1)N2 (some centres not stated) | Stability [9]: Stable; Stability [10]: Stable |
| 158% | 5.72 | Cc1ccccc1[C@H]1Nc2[nH]nc(C)c2[C@@H](O)[C@@H]1n1nnc2ccccc21 (racemic) | Emax [3]: 97%; pIC50 [4]: 5.34 |
| 164% | – | Cc1n[nH]c2c1[C@@H](O)[C@H](n1nnc3ccccc31)[C@@H](c1ccccc1Br)N2 (racemic) [listing 1 of 2 here] | – |
| – | 7.12 | Cc1n[nH]c2c1[C@@H](O)[C@H](n1nnc3ccccc31)[C@@H](c1ccccc1Cl)N2 [listing 2 of 2 here] | microsomal CLint [5]: 9.61 µL/min/mg; microsomal CLint [6]: 15.7 µL/min/mg; solubility [7]: > 100 µM; solubility [8]: > 100 µM; pIC50 [4]: 6.96; pIC50 [11]: < 4.60 |
| 137% | – | Cc1n[nH]c2c1[C@@H](O)[C@H](n1nnc3ccccc31)[C@@H](c1ccccc1)N2 [listing 2 of 2 here] | Emax [3]: 95% |
| > 65% | < 4.80 | Cc1n[nH]c2c1[C@@H](O)[C@H](n1nnc3ccccc31)[C@@H](C1CCOCC1)N2 (racemic) | – |
| 180% | 6.43 | Cc1n[nH]c2c1[C@@H](O)[C@H](n1nnc3ccccc31)[C@@H](C1CCCCC1)N2 (racemic) | Emax [3]: 102%; pIC50 [4]: 6.19 |

| Emax [2] | pEC50 [1] | SMILES | further results |
| --- | --- | --- | --- |
| 145% | 5.48 | COc1ccccc1[C@H]1Nc2[nH]nc(C)c2[C@@H](O)[C@@H]1n1nnc2ccccc21 (racemic) | – |
| 170% | – | Cc1n[nH]c2c1[C@@H](O)[C@H](n1nnc3ccccc31)[C@@H](c1ccccc1Br)N2 [listing 1 of 2 here] | Emax [3]: 101% |
| inactive | – | Cc1n[nH]c2c1[C@@H](O)[C@H](n1nnc3ccccc31)[C@@H](C)N2 (racemic) | EC50 [1]: Not Active |
| 157% | 5.96 | Cc1ccc([C@H]2Nc3[nH]nc(C)c3[C@@H](O)[C@@H]2n2nnc3ccccc32)cc1 (racemic) | – |
| inactive | – | Cc1n[nH]c2c1[C@H](O)[C@@H](n1nnc3ccccc31)[C@H](c1ccccc1)N2 | Emax [3]: inactive; EC50 [1]: Not Active; IC50 [4]: Not Active |
| 170% | 6.64 | Cc1n[nH]c2c1[C@@H](O)[C@H](n1nnc3ccccc31)[C@@H](C1CCCCCC1)N2 (racemic) | – |
| 132% | 5.13 | CC(C)(C)c1n[nH]c2c1[C@@H](O)[C@H](n1nnc3ccccc31)[C@@H](c1ccccc1Cl)N2 (racemic) | – |
| 103% | – | OC[C@H]1CNC[C@@H](O)[C@@H]1O | Emax [3]: 103% |
| inactive | – | O[C@@H]1c2c(-c3ccccc3)n[nH]c2N[C@H](c2ccccc2Cl)[C@H]1n1nnc2ccccc21 (racemic) | EC50 [1]: Not Active |
| > 40% | < 4.80 | O[C@@H]1c2cn[nH]c2N[C@H](c2ccccc2)[C@H]1n1nnc2ccccc21 (racemic) | – |
| 140% | 6.85 | Cc1n[nH]c2c1[C@@H](O)[C@H](n1nnc3ccccc31)[C@@H](c1cccc(Cl)c1Cl)N2 (racemic) | – |
| – | 6.70 | Cc1n[nH]c2c1[C@@H](O)[C@H](n1nnc3ccccc31)[C@@H](c1ccccc1Br)N2 (racemic) [listing 2 of 2 here] | – |
| 158% | 5.96 | Cc1cccc([C@H]2Nc3[nH]nc(C)c3[C@@H](O)[C@@H]2n2nnc3ccccc32)c1 (racemic) | – |
| 160% | – | Cc1n[nH]c2c1[C@@H](O)[C@H](n1nnc3ccccc31)[C@@H](c1ccccc1Cl)N2 (racemic) [listing 1 of 2 here] | – |
| 150% | 6.13 | Cc1n[nH]c2c1[C@@H](O)[C@H](n1nnc3ccccc31)[C@@H](c1ccc(Cl)cc1Cl)N2 (racemic) | – |
| inactive | – | Cc1n[nH]c2c1[C@H](O)[C@@H](n1nnc3ccccc31)[C@H](c1ccccc1Cl)N2 | Emax [3]: inactive; EC50 [1]: Not Active; IC50 [4]: Not Active |
| 172% | 7.08 | O[C@@H]1c2c(C3CC3)n[nH]c2N[C@H](c2ccccc2Cl)[C@H]1n1nnc2ccccc21 (racemic) | Emax [3]: 95%; pIC50 [4]: 7.13 |
| – | 7.07 | Cc1n[nH]c2c1[C@@H](O)[C@H](n1nnc3ccccc31)[C@@H](c1ccccc1Br)N2 [listing 2 of 2 here] | microsomal CLint [5]: 22.7 µL/min/mg; microsomal CLint [6]: 31.4 µL/min/mg; solubility [7]: > 100 µM; solubility [8]: > 100 µM; pIC50 [4]: 6.48; pIC50 [11]: < 4.60 |
| 145% | 6.14 | Cc1n[nH]c2c1[C@@H](O)[C@H](n1nnc3ccccc31)[C@@H](c1cc(Cl)ccc1Cl)N2 (racemic) | – |
| 61% | 5.66 | Cc1n[nH]c2c1[C@@H](O)[C@H](n1nnc3ccccc31)[C@@H](c1ccc(F)cc1)N2 (racemic) | – |
| > 239% | < 4.80 | O[C@@H]1c2cnccc2N[C@H](c2ccccc2Cl)[C@H]1n1nnc2ccccc21 (racemic) | – |
| – | 6.85 | Cc1n[nH]c2c1[C@@H](O)[C@H](n1nnc3ccccc31)[C@@H](c1ccccc1Cl)N2 (racemic) [listing 2 of 2 here] | – |
| 148% | 6.96 | Cc1n[nH]c2c1[C@@H](O)[C@H](n1nnc3ccccc31)[C@@H](c1cccc(F)c1Cl)N2 (racemic) | – |
